# According to publication PMC5507595 (Free radical biology & medicine, 2017):
# Target: protein disulfide isomerase (PDI) (Homo sapiens, UniProt P07237)
# Experiment: absorbance titration of MNS with reduced PDI
# Assay type: binding
# Sequence of protein disulfide isomerase (PDI) (P07237 18-508): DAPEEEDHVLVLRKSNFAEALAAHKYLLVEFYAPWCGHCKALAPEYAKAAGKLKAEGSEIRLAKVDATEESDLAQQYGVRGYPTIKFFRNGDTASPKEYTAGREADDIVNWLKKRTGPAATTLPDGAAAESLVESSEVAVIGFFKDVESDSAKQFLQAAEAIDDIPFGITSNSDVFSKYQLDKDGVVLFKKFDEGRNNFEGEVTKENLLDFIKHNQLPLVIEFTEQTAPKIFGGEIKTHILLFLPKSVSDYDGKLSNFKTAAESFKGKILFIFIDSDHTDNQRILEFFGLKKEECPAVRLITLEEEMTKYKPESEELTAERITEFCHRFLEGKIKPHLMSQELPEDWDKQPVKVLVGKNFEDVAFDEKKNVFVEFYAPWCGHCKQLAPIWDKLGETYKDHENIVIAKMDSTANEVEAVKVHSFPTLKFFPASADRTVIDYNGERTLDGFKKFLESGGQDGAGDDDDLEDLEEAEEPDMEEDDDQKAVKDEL
smiles,measurement,value
"O=[N+]([O-])C=Cc1ccc2c(c1)OCO2 [3,4-methylenedioxy-β-nitrostyrene]",Kd,low micromolar
